Measured values as given in US10195156B2, “Compounds and compositions for intracellular delivery of agents” (ModernaTX, Inc., priority 2015, dated 2019).

Assays:
[1] = pKa of nanoparticle compositions; format: physicochemical
[2] = Encapsulation efficiency of RNA (QUANT-IT RIBOGREEN RNA assay); format: physicochemical
Procedure, shortened: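 RiboGreen fluorescence (ex ~480, em ~520 nm) measured after 15 min at 37 °C on samples at ~5 μg/mL in TE, pH 7.5, ± 2% Triton X-100 solution. After blank subtraction, free RNA is given as intact-sample signal divided by disrupted-sample signal.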

[3] = tested on: luciferase (Luc) mRNA expression; test: Expression of Luc induced by sample formulations, whole-body bioluminescence after intravenous administration; format: in vivo; settings: mice, i.v., 0.5 mg/kg
Procedure, shortened: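 Read-out is whole-body bioluminescence at 3, 6 and 24 h after a single intravenous dose of 0.5 mg/kg Luc mRNA in nanoparticle formulations. Groups of n=6 mice; PBS and standard MC3 formulation as references.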

[4] = tested on: modified luciferase expression; test: Expression of Luc in different organs (liver, lung, spleen, femur) 6 hours after intravenous administration; format: in vivo; settings: i.v., 0.5 mpk
Method: The efficacy of the nanoparticle compositions presented in Tables 1, 1a, 17-1, 19-1, 20-1 and 21-1 was further evaluated by measuring the expression of modified luciferase in the liver, lung, spleen, and femur upon administration of a given composition. Formulations were administered intravenously to mice (n=3) at a dosage of 0.5 mpk and bioluminescence measured after 6 hours. The standard MC3 formulation and a PBS control were also tested.

[5] = Particle size and polydispersity index of nanoparticle compositions (Zetasizer Nano ZS); format: physicochemical
Procedure, shortened: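 Values are size and PDI readings from a Zetasizer Nano ZS. Measurements are taken in 1×PBS; zeta potential, by contrast, uses 15 mM PBS.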

IL-6 = test: Cytokine production induced by sample formulations: IL-6; format: in vivo; settings: mice, i.v., 0.5 mpk, 6 hours, in pg/mL (unit assumed)
Procedure, shortened: (§1)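 Cytokine levels were quantified at 6 hours in mice given the nanoparticle compositions i.v. at 0.5 mpk. MC3 standard formulation and PBS served as comparators.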

IP-10 = test: Cytokine production induced by sample formulations: IP-10; format: in vivo; settings: mice, i.v., 0.5 mpk, 6 hours, in pg/mL (unit assumed)
Procedure, shortened: as §1

[6] = Table 20-1, rows without footnote mark
[7] = Table 1, rows without footnote mark
[8] = Table 1, rows without footnote mark (lipid:DOPE:cholesterol:PEG-DMG 40:20:38.5:1.5, Luc mRNA; MC3 standard formulation)
[9] = Table 1, * lipid:DSPC:Chol:PEG-DMG 50:10:38.5:1.5

SMILES | pKa [1, 7] | EE (%) [2, 7] [%] | Total Flux 3 hours ([3]; Table 2, 3 hours) | Total Flux 6 hours ([3]; Table 2) | Total Flux 24 hours ([3]; Table 2) | Total Flux Liver ([4]; Table 3, mice) | Total Flux Lung ([4]; Table 3, mice) | Total Flux Spleen ([4]; Table 3, mice) | PDI [5, 7] | Size (nm) [5, 8] [nm] | IL-6 (IL-6; Table 4) | IP-10 (IP-10; Table 4) | Total Flux Femur ([4]; Table 3, mice) | other results
CCCCC/C=C\C/C=C\CCCCCCCCN(CCO)CCN(CCCCCCCCCCCC)CCCCCCCCCCCC [Compound 20-25, 2-((2-(Didodecylamino)ethyl)((9Z,12Z)-octadeca-9,12-dien-1-yl)amino)ethan-1-ol] | – | – | – | – | – | – | – | – | – | – | – | – | – | pKa [1, 6]: 6.23; EE (%) [2, 6]: 98.4%; Total Flux 3 hours ([3]; Table 20-2, 3 hours): 1.16E+09; Total Flux 6 hours ([3]; Table 20-2): 1.78E+09; Total Flux 24 hours ([3]; Table 20-2): 3.82E+07; Total Flux Femur ([4]; Table 20-3, mice): 3.13E+05; Total Flux Liver ([4]; Table 20-3, mice): 1.88E+08; Total Flux Lung ([4]; Table 20-3, mice): 7.85E+05; Total Flux Spleen ([4]; Table 20-3, mice): 4.16E+06; PDI [5, 6]: 0.171; Size (nm) [5, 6]: 71.7 nm; IL-6 (IL-6; Table 20-4, formula (20-I)): 20.6; IP-10 (IP-10; Table 20-4, formula (20-I)): 188.0
CCCCCCCCCCCCN(CCCCCCCCCCCC)CCN(CCCCCCCCCCCC)CCN1CCN(CCN(CCCCCC)CCCCCC)CC1 [Compound 21, N^1-(2-(4-(2-(Dihexylamino)ethyl)piperazin-1-yl)ethyl)-N^1,N^2,N^2-tridodecylethane-1,2-diamine] | 6.29 | 98.6 | 1.13E+10 | 1.08E+10 | 1.18E+08 | 1.24E+09 | 2.51E+06 | 1.17E+07 | 0.239 | 98.3 | 48 | 652 | – | –
CCCCC/C=C\CCCCCN(CCCCC/C=C\CCCCC)CCN1CCN(CCN(CCCCCCCCCCCC)CCN(CCCCCCCCCCCC)CCCCCCCCCCCC)CC1 [Compound 25, N^1-(2-(4-(2-(Di((Z)-dodec-6-en-1-yl)amino)ethyl)piperazin-1-yl)ethyl)-N^1,N^2,N^2-tridodecylethane-1,2-diamine] | 6.20 | 97.0 | 1.06E+10 | 1.08E+10 | 2.72E+08 | 2.68E+09 | 5.88E+06 | 6.00E+06 | 0.186 | 90.0 | 131 | 1823 | – | –
CCCCCCCCCCCCCCN(CCCCCCCCCCCCCC)CCN1CCN(CCN(CCCCCCCCCCCC)CCN(CCCCCCCCCCCC)CCCCCCCCCCCC)CC1 [Compound 26, N^1-(2-(4-(2-(Ditetradecylamino)ethyl)piperazin-1-yl)ethyl)-N^1,N^2,N^2-tridodecylethane-1,2-diamine] | – | – | 1.65E+07 | 1.04E+07 | 2.75E+06 | 2.35E+06 | 3.49E+04 | 2.30E+05 | – | – | 17 | 175 | – | pKa [1, 9]: 6.19; EE (%) [2, 9]: 84.9%; Size (nm) ([5]; Table 1, * formulated with lipid:DSPC:Chol:PEG-DMG 50:10:38.5:1.5): 74.2 nm; PDI [5, 9]: 0.112
CCCCC/C=C\C/C=C\CCCCCCCCN(CCCCCCCCCCCC)CCN1CCN(CCN(CCCCCCCCCCCC)CCN(CCCCCCCCCCCC)CCCCCCCCCCCC)CC1 [Compound 27, N^1,N^1,N^2-Tridodecyl-N^2-(2-(4-(2-(dodecyl((9Z,12Z)-octadeca-9,12-dien-1-yl)amino)ethyl)piperazin-1-yl)ethyl)ethane-1,2-diamine] | 6.14 | 97.9 | 4.56E+09 | 4.70E+09 | 1.36E+08 | 7.84E+08 | 3.56E+06 | 3.34E+06 | 0.211 | 86.4 | 42 | 2564 | – | –
CCCCCCCC/C=C\CCCCCCCCN(CCCCCCCC/C=C\CCCCCCCC)CCN1CCN(CCN(CCCCCCCCCCCC)CCN(CCCCCCCCCCCC)CCCCCCCCCCCC)CC1 [Compound 28, N^1-(2-(4-(2-(Di((Z)-octadec-9-en-1-yl)amino)ethyl)piperazin-1-yl)ethyl)-N^1,N^2,N^2-tridodecylethane-1,2-diamine] | 6.04 | 80.2 | 6.18E+09 | 7.28E+09 | 4.02E+08 | 8.10E+08 | 5.73E+06 | 5.67E+06 | 0.099 | 87.4 | 73 | 5364 | 1.16E+06 | –
CCCCC/C=C\C/C=C\CCCCCCCCN(CCCCCCCC/C=C\C/C=C\CCCCC)CCN1CCN(CCN(CCCCCCCCCCCC)CCN(CCCCCCCCCCCC)CCCCCCCCCCCC)CC1 [Compound 29, N^1-(2-(4-(2-(Di((9Z,12Z)-octadeca-9,12-dien-1-yl)amino)ethyl)piperazin-1-yl)ethyl)-N^1,N^2,N^2-tridodecylethane-1,2-diamine] | 5.97 | 48.8 | 1.22E+08 | 2.51E+08 | 2.69E+07 | 2.27E+07 | 4.70E+05 | 2.97E+06 | 0.060 | 105.3 | 108 | 3454 | – | –
CCCCCCCCCCCCCCN(CCCCCCCCCCCCCC)CCN(CCCCCCCCCCCCCC)CCN1CCN(CCN(CCCCCCCCC)CCCCCCCCC)CC1 [Compound 30, N^1-(2-(4-(2-(Dinonylamino)ethyl)piperazin-1-yl)ethyl)-N^1,N^2,N^2-tritetradecylethane-1,2-diamine] | 6.09 | 74.3 | 2.87E+10 | 1.59E+10 | 1.95E+09 | 2.42E+09 | 1.61E+07 | 7.18E+06 | 0.110 | 95.0 | 300 | 4235 | 2.22E+06 | total flux after 3 hours, rank within the named table (in words) ([3]; 3 hours): highest flux after 3 hours
CCCCCCCCCCCCCCN(CCCCCCCCCCCCCC)CCN(CCCCCCCCCCCCCC)CCN1CCN(CCN(CCCCCCCCCCCC)CCCCCCCCCCCC)CC1 [Compound 31, N^1-(2-(4-(2-(Didodecylamino)ethyl)piperazin-1-yl)ethyl)-N^1,N^2,N^2-tritetradecylethane-1,2-diamine] | 6.31 | 77.5 | 1.43E+10 | 1.42E+10 | 3.07E+08 | 1.54E+09 | 9.81E+06 | 1.28E+07 | 0.130 | 87.9 | 188 | 2513 | 9.89E+05 | –
